Values of other authors as cited in patent USRE38386E1, “Retardation of metalloproteinase incidental to HIV and/or AIDS” (priority 1997, dated 2004).

What was measured:
[1] = system: endothelial cell monolayers; conditions: incubation of HIV-infected monocytes with the proteinase inhibitor
[2] = system: 92-kd metalloproteinase (MMP-9)
HIV = conditions: added to monocytes on day 10 after infection
HIV-infected monocytes = conditions: interferon-gamma at 50 U/ml

Substance	increased permeability of endothelial cell monolayers to 125I albumin [1]	inhibition of MMP-9 production ([2]; added to monocytes on day 10 after infection)	levels of MMP-9 ([2]; treated 1 day after HIV infection, vs monocytes inoculated with live HIV, heat-inactivated HIV or uninfected control)	levels of MMP-9 produced by HIV-infected monocytes ([2]; treated 1 day prior to infection with HIV, vs untreated HIV-infected monocytes)	reduction of virus replication (HIV)	ability of infected monocytes to form an invasive network on matrigel and their invasion through the matrigel matrix (HIV-infected monocytes)
TIMP-1: proteinase inhibitor, tissue inhibitor of metalloproteinase	inhibited					
interferon-gamma: interferon-gamma, used to treat HIV-infected monocytes		more than threefold	substantially lower	significant reduction	no significant reduction	inhibited
